This is an account of results in patent US5066585A, “Method of inhibiting fungus using novel antifungal compounds” (priority 1990, dated 1991).

Broadly, the MIC is the smallest concentration in the dilution series that meets the test's criterion for growth inhibition. A low value points to inhibition by little substance.

≈ marks a conversion by molar mass, not a printed value. Where two headings read alike, the source gives them in different places.

The subject of data set [1] is murine tumors. The settings on record: more active than adriamycin; cited from earlier work.
In data set [2] the test system is Candida albicans, Aspergillus fumigatus, and Cladosporium spp. fungi. The experiment in a line: TLC bioassay for the detection of the biological activity. The data set is classed as cell-based. The settings on record: bands at Rf 0.48 and 0.72, CHCl3-MeOH 16:1. On the procedure: The crude extract obtained from the mycelium was spotted on a TLC plate (5×20, […]) and developed (CHCl3 -MeOH, 16:1 v/v). The plate was then marked under UV and visible light for individual spots or regions. The spores of the agar slant culture of the test organism was suspended in 10 ml of sterile physiological saline. The growth medium containing agar was then shaken well with 50 ul of the above suspension (35-40° C.) and poured over the developed TLC plate uniformly and allowed to set. The plates were then placed in a moist chamber and incubated at 26° C. for 24 to 72 hours and the zone of inhibition was recorded for the respective spots of the plate. The test organisms were Candida albicans, Aspergillus fumigatus, and Cladosporium spp. fungi and the growth medium was potato dextrose agar (PDA, 39 g/l).

Data set [3] in a line: Solubility. The data set is classed as physicochemical.
A short description of data set [4]: stability on standing in 2N HCl. It is filed as physicochemical. The settings on record: upon standing in 2N HCl.
In data set [5] the test system is C. quilliermondii. The data set can be described thus: MIC against C. quilliermondii, broth dilution. It is filed as cell-based. The settings on record: fungus, ca 10,000 CFU, liquid Emmons medium, DMSO solution. How it is done:
(§1) Known amounts of the purified substance were dissolved in DMSO and serial dilutions prepared in the same solvent. A 20 ul volume of each dilution was placed on the surface of Emmon's agar in petri-dishes seeded with various test strains of pathogenic and saprophytic fungi. The antibacterial activity was monitored using Muller-Hilton agar. The minimum inhibitory concentration (MIC) was determined by incorporating known amount of the DMSO dissolved purified substance into Emmon's liquid medium (same as stated earlier but devoid of agar) contained in test tubes. The tubes were inoculated with ca 2×10^3 CFU of the test organisms. The inoculated tubes were incubated at 26° C. and the results recorded after two to 5 days' depending upon the growth pattern of the test organisms (certain fungi grow faster than others). Tubes inoculated in an identical manner but devoid of the active substance served as controls.
(§2) Minimum inhibitory concentration of Spartanamycin-B against certain bacteria and fungi. (The substance was dissolved in DMSO, 20 ul of the solution was mixed with two ml of liquid Emmons medium containing ca 10,000 Colony forming Units of fungal test strains or 100,000 CFU's of bacterial test strains).
In general terms: Dilution methods test growth across graded concentrations, often in twofold steps.

Data set [6] relates to Pseudomonas aeruginosa. The data set can be described thus: MIC against Pseudomonas aeruginosa. It is filed as cell-based. As to conditions: bacterial strain, 100,000 CFU. How it is done:
as §1, §2

Data set [7] concerns C. neoformans-G-3. The data set can be described thus: MIC against C. neoformans-G-3, broth dilution. The data set is classed as cell-based. The settings on record: G = nonencapsulated, drypasty, highly virulent strain, ca 10,000 CFU. How it is done: as §1, §2
In data set [8] the test system is Citrobacter species. The experiment in a line: MIC against Citrobacter species. The data set is classed as cell-based. The settings on record: bacterial strain, 100,000 CFU. How it is done: as §1, §2
In data set [9] the test system is R. glutinis. The experiment in a line: MIC against R. glutinis, broth dilution. The data set is classed as cell-based. As to conditions: fungus, ca 10,000 CFU, liquid Emmons medium. On the procedure: as §1, §2
Data set [10] relates to A. flavus. The data set can be described thus: MIC against A. flavus, broth dilution. The data set is classed as cell-based. The settings on record: fungus, ca 10,000 CFU, liquid Emmons medium, DMSO solution. On the procedure: as §1, §2
Data set [11] deals with Rhodotorula rubra. The data set can be described thus: MIC against Rhodotorula rubra, broth dilution. The data set is classed as cell-based. As to conditions: fungus, ca 10,000 CFU, liquid Emmons medium. On the procedure: as §1, §2
The test system of data set [12] is Escherichia coli. The data set can be described thus: MIC against Escherichia coli. The data set is classed as cell-based. As to conditions: bacterial strain, 100,000 CFU. How it is done:
as §1, §2

Data set [13] concerns Cryptococcus neoformans-N-2. The data set can be described thus: MIC against Cryptococcus neoformans-N-2, broth dilution. It is filed as cell-based. The settings on record: N = encapsulated, mucoid strain with neurotropic tendencies, ca 10,000 CFU. On the procedure: as §1, §2
In data set [14] the test system is Penicillium species. The data set can be described thus: MIC against Penicillium species, broth dilution. The data set is classed as cell-based. The settings on record: fungus, ca 10,000 CFU, liquid Emmons medium, DMSO solution. How it is done: as §1, §2
Data set [15] has as its system C. neoformans-N-3. The data set can be described thus: MIC against C. neoformans-N-3, broth dilution. It is filed as cell-based. As to conditions: N = encapsulated, mucoid strain with neurotropic tendencies, ca 10,000 CFU. How it is done:
as §1, §2

Data set [16] deals with A. niger. The data set can be described thus: MIC against A. niger, broth dilution. As to conditions: fungus, ca 10,000 CFU, liquid Emmons medium, DMSO solution. It is filed as cell-based. On the procedure:
as §1, §2

In data set [17] the test system is Aspergillus fumigatus. The experiment in a line: MIC against Aspergillus fumigatus, broth dilution. The data set is classed as cell-based. The settings on record: fungus, ca 10,000 CFU, liquid Emmons medium, DMSO solution. How it is done:
as §1, §2

The subject of data set [18] is S. aureus ATCC 25923. The experiment in a line: MIC against S. aureus ATCC 25923. It is filed as cell-based. As to conditions: bacterial strain, 100,000 CFU. On the procedure: as §1, §2
Data set [19] has as its system C. neoformans serotype-C. The experiment in a line: MIC against C. neoformans serotype-C, broth dilution. It is filed as cell-based. As to conditions: ca 10,000 CFU, liquid Emmons medium. How it is done:
as §1, §2

Data set [20] has as its system Plebsiella pneumoniae. The experiment in a line: MIC against Plebsiella pneumoniae. The data set is classed as cell-based. As to conditions: bacterial strain, 100,000 CFU. On the procedure:
as §1, §2

For data set [21], the system named is Candida albicans. The experiment in a line: MIC against Candida albicans, broth dilution. It is filed as cell-based. The settings on record: fungus, ca 10,000 CFU, liquid Emmons medium, DMSO solution. How it is done: as §1, §2
In data set [22] the test system is S. aureus (multiple drug resistant). The data set can be described thus: MIC against S. aureus (multiple drug resistant). The data set is classed as cell-based. The settings on record: bacterial strain, 100,000 CFU. How it is done: as §1, §2
Data set [23] has as its system Cladosporium species. The data set can be described thus: MIC against Cladosporium species, broth dilution. The data set is classed as cell-based. As to conditions: fungus, ca 10,000 CFU, liquid Emmons medium, DMSO solution. How it is done: as §1, §2
The test system of data set [24] is C. neoformans serotype-D. The data set can be described thus: MIC against C. neoformans serotype-D, broth dilution. It is filed as cell-based. The settings on record: ca 10,000 CFU, liquid Emmons medium. On the procedure:
as §1, §2

The subject of data set [25] is Staphylococcus aureus ATCC 29213. The experiment in a line: MIC against Staphylococcus aureus ATCC 29213. The data set is classed as cell-based. As to conditions: bacterial strain, 100,000 CFU. On the procedure:
as §1, §2

For data set [26] the following is noted: comparison compounds; cited from earlier work.
Data set [27] concerns fungi. As to conditions: comparison compounds from Streptomyces; cited from earlier work.
The mark [28] stands for this setting: hexane, cyclohexane, water and 2N HCl.

Take `CCN[C@H]1CO[C@@H](O[C@H]2[C@H](O[C@H]3C#C/C=C\C#C[C@]4(O)CC(=O)C(NC(=O)OC)=C3/C4=C\CSSSC)O[C@H](C)[C@@H](NO[C@H]3C[C@H](O)[C@H](SC(=O)c4c(C)c(I)c(O[C@@H]5O[C@@H](C)[C@H](O)[C@@H](OC)[C@H]5O)c(OC)c4OC)[C@@H](C)O3)[C@@H]2O)C[C@@H]1OC` [Calicheamicin]: the “activity relative to adriamycin against murine tumors” value in [1] is “approximately 1000 fold”.
On to `CCC1(O)CC(OC2CC(N(C)C)C(OC3CC4OC5CC(=O)C(C)OC5OC4C(C)O3)C(C)O2)c2c(cc3c(c2O)C(=O)c2c(O)ccc(O)c2C3=O)C1C(=O)OC` (stereo not shown) [Spartanamicin A], for which the “biological activity of TLC band” value in data set [2] was “biologically active”. For the same molecule, the Solubility entry is “Sparingly soluble” in data set [3] (1-butanol, ethanol, methanol); “Soluble” in [3] (chloroform, carbon tetrachloride, toluene, ethyl acetate, DMF, DMSO, acetonitrile, acetone and glacial acetic acid); “Insoluble” in data set [3] (setting [28]). Also, the “solubility in methanol and ethanol” value in data set [3] is recorded as “not soluble”.
As for `CC[C@@]1(O)C[C@H](O[C@H]2C[C@H](N(C)C)[C@H](O[C@H]3C[C@H](O)[C@H](O[C@H]4CCC(=O)[C@H](C)O4)[C@H](C)O3)[C@H](C)O2)c2c(cc3c(c2O)C(=O)c2c(O)ccc(O)c2C3=O)[C@H]1C(=O)OC` [Spartanamicin B], the “stability in 2N HCl” value in data set [4] is “hydrolyses”. The MIC is 0.8 mg/L (≈ 0.966 µM) in data set [5]; 100 mg/L (≈ 121 µM) in data set [6]; 1.0 mg/L (≈ 1.21 µM) in [7]; “not active” in [8]; 0.4 mg/L (≈ 0.483 µM) in data set [9]; 0.6 mg/L (≈ 0.725 µM) in data set [10]. The MIC in data set [11] was 0.8 mg/L (≈ 0.966 µM); in data set [12] it was “not active”; in data set [13] it was 0.8 mg/L (≈ 0.966 µM); in [14], 0.2 mg/L (≈ 0.242 µM); in data set [15], 0.6 mg/L (≈ 0.725 µM); in data set [16], 0.6 mg/L (≈ 0.725 µM). The MIC in data set [17] was 0.4 mg/L (≈ 0.483 µM); in data set [18] it was 0.8 mg/L (≈ 0.966 µM); in data set [19] it was 0.8 mg/L (≈ 0.966 µM); in [20], 100 mg/L (≈ 121 µM); in data set [21], 0.2 mg/L (≈ 0.242 µM); in data set [22], “not active”. Also, the MIC in [23] is 0.4 mg/L (≈ 0.483 µM); in [24] it was 0.8 mg/L (≈ 0.966 µM); in [25] it was 0.8 mg/L (≈ 0.966 µM). Also, the “biological activity of TLC band” value in data set [2] is “biologically active”. Further, the Solubility result in [3] (1-butanol, ethanol, methanol, acetonitrile) is given as “Sparingly soluble”; in [3] (chloroform, carbon tetrachloride, toluene, ethyl acetate, DMF, DMSO, acetone and glacial acetic acid), “Soluble”; in [3] (setting [28]), “Insoluble”. Besides, in [3], the “solubility in methanol and ethanol” value is listed as “not soluble”.
For `CCC1(O)CC(OC2CC(N(C)C)C(OC3CC(O)C(OC4CCC(=O)C(C)O4)C(C)O3)C(C)O2)c2c(cc3c(c2O)C(=O)c2c(O)ccc(O)c2C3=O)C1C(=O)OC` (stereo not shown) [cinerubin A], the “solubility in methanol and ethanol” value in data set [26] is on record as “soluble”. For the same molecule, the antifungal properties entry in [27] is recorded as “not significantly antifungal”.
`CCC1(O)CC(OC2CC(N(C)C)C(OC3CC4OC5CC(=O)C(C)OC5OC4C(C)O3)C(C)O2)c2c(cc3c(c2O)C(=O)c2c(O)ccc(O)c2C3=O)C1C(=O)OC` (stereo not shown) [cinerubin B]: the “solubility in methanol and ethanol” value in data set [26] is reported as “soluble”. Further, the antifungal properties result in data set [27] is on record as “not significantly antifungal”.
